Test results published in patent US8431395B2, “Pluripotent cells from rat and other species” (The University Court of the University of Edinburgh, priority 2006, dated 2013).

Tests used:
GSK3 = conditions: cited from earlier work
mouse ES cells = assay: Culture of pluripotent (ES) cells with inhibitors to promote self renewal; assay type: cell-based
From the text: Mix DMEM/F12-N2 medium with Neurobasal/B27 medium at the ration of 1:1. The media was used to dilute all compounds and grow the cells.

3i rat cells = assay: Maintenance of undifferentiated rat 3i cells under altered culture conditions; assay type: cell-based
From the text: We investigated the effect of altering the culture conditions on maintenance of the undifferentiated state. […] LIF is not included in culture medium, consistent with the sufficiency of 3i for mouse ES cells. Rat cells transferred from 3i to medium supplemented with serum and LIF or BMP and LIF differentiated into various morphologies and lost expression of Oct4 and Nanog (FIG. 13a). These observations indicate that the 3i rat cells have reduced responsiveness to gp130/Stat3 signalling compared with mouse ES cells^20, 21. This may be a significant contributory factor to previous failures to derive rat ES cells.
Cells cultured without inhibitors differentiated into various morphologies (FIG. 13b). […] These findings are consistent with the hypothesis that blockade of FGF/Erk signaling is the critical requirement to sustain the naïve pluripotent state (Ying et al., submitted).
Recently the derivation of cell lines from post-implantation egg cylinder stage epiblast has been reported in mice and rats^3, 10. […] In contrast the 3i rat cells do contribute to chimaeras. They also express Rex1, Stella (Dppa3) and alkaline phosphatase, markers of ES cells and early epiblast that are absent in EpiSCs. Furthermore 3i rat cells can readily be propagated after dissociation into single cells whereas maintained cell-cell contact appears critical for EpiSCs. […]

| Compound | specificity (GSK3) | results as GSK3 inhibitor in culture of pluripotent cells (mouse ES cells) | fold lower concentration at which fully effective as substitute for SU5402 (mouse ES cells; relative to SU5402) | maintenance / propagation of undifferentiated rat cells (3i rat cells) |
| --- | --- | --- | --- | --- |
| CHIR 98014 | specific for GSK3 | Good results |  |  |
| CCN(CC)CCCCNc1ncc2cc(-c3cc(OC)cc(OC)c3)c(NC(=O)NC(C)(C)C)nc2n1 [PD173074] |  |  | about 100 fold |  |
| Cc1c[nH]c(-c2cnc(NCCNc3ccc(C#N)cn3)nc2-c2ccc(Cl)cc2Cl)n1 [CHIR 99021] | specific for GSK3 | Good results |  |  |
| NC(=O)c1ccc(-c2nc(-c3ccccn3)c(-c3ccc4c(c3)OCO4)[nH]2)cc1 [SB431452] |  |  |  | did not impede propagation |
